Each block holds one molecule with its values, some of them ahead of it.
Assays:
[1] = system: PACE4 secretion; experiment: PACE4 secretion assay with post-translational modification inhibitors; type: cell-based; conditions: 24 h secretion in presence of agent
Text: Immunoprecipitations on transiently transfected HEK293-FT cells were subjected to Sequential Window Acquisition of all Theoretical Mass Spectra (SWATH-MS)-based analysis (FIGS. 7F and G). Proteins identified in each pull-down were used to compare enrichment between the two different isoforms. Both isoforms pulled-down endoplasmic reticulum (ER) proteins with similar enrichment. The two isoforms had clearly different patterns when it came to endosomal compartments-associated proteins such as Arf6, Rab13 or Vps16 with PACE4-altCT pull-down displaying the higher enriched levels for these proteins. […] Considering the slight substitution caused by the splicing in the protein primary structure (FIG. 7A), PTM prediction tools were used to evaluate whether distinctive PTM motifs could be found in the alternative C-terminus compared to the FL one. The predicted PTM sites that scored the highest were S-palmitoylation, non-consensual S-farnesylation and S-geranylgeranylation on the Cys cluster added at the C-terminal extremity of the protein ([…]; see FIG. 8A).
For PACE4 secretion assays, cells were plated at equal densities in 6-well plates for 24 h in complete medium. 24 h later, the medium was replaced by the minimal volume required of fresh culture medium (600 μL without FBS) and the cells were either allowed to secrete for the indicated time (for secretion kinetics) or (for inhibitor treatments) allowed to secrete for an additional 24 h in the presence of the indicated concentrations of agents (heparin (Sandoz, Niirnberg, Germany), 2-bromopalmitate (Sigma Aldrich), FTI-277 (Sigma Aldrich), GGTI-2133 (Santa Cruz Biotechnology Inc., Santa Cruz, Calif., USA)

[2] = biological target: growth differentiation factor 15 (human) (UniProt Q99988); experiment: cell-based or functional assay
[3] = system: GDF-15 in LNCaP cells; experiment: GDF-15 cleavage and secretion analysis (western blot, ELISA); type: cell-based; conditions: treated LNCaP cells, western blot array and ELISA
Text: FIG. 10 illustrates the identification and validation of GDF-15 as a PACE4-specific substrate in prostate cancer cells, showing in (A) Western blots of candidate PC substrates across the knockdown, overexpressing and inhibitor-treated DU145 and LNCaP (B) lines; (C) expression of GDF-15 in DU145 and LNCaP cells showing that mature GDF-15 is secreted in the medium; (D) GDF-15 concentrations in DU145 and LNCaP conditioned medium determined by ELISA; (E) GDF-15 cleavage analysis in the LNCaP cells panel; (F) GDF-15 concentrations in the conditioned medium determined by ELISA; (G) GDF-15 cleavage analysis in LNCaP treated with either the ML-peptide or the cell impermeable analog (PEG8-ML); (H) GDF-15 spanning peptide cleavage by PACE4 and furin monitored by HPLC, cleavage site is underlined in the spanning peptide sequence, peptide identity was confirmed by MALDI-TOF upon collection of associated fractions; (I) Western blot analysis of paired adjacent non-cancerous tissues (ANCT) and prostate tissues (PCa); and (J) a blot showing various cancer grades is shown together with the densitometric analysis of 21 tissues pairs (n=6 (3+3), 7 (3+4), 6 (4+3), 2 (5+X) X being 3 and 4).
GDF-15 is known to supports both the proliferation and clonogenic potential of LNCaP cells, which is also in line with the observed phenotypes for both PACE4 knockdown and overexpressing cells. […]

[4] = system: IGF1R; experiment: Western blot of PC substrate processing in inhibitor-treated DU145 and LNCaP lines; type: cell-based; conditions: 50 μM, 48 h
Experimental: (§1) Western blotting were carried out of (i) cell lines silenced with shPACE4, shfurin and shPC7, (ii) cell lines stably expressing PACE4-FL and PACE4-altCT and (iii) cell lines treated with either the non-selective and irreversible PC inhibitor decanoyl-RVKR-chloromethylketone (CMK) or the PACE4 high affinity peptide inhibitor [dLeu]LLLRVK-amidinobenzylamide (Amba; dL-ML-Amba), herein after called C23 (Levesque et al., 2015, Oncotarget, 6: 3680-3693). In order to test the western blot arrays, known PC substrates were chosen, namely, the insulin-like growth factor 1 receptor (IGF1R) and integrin alpha-6 (ITGA6); two well-accepted furin substrates, were evaluated (FIGS. 10A and B) and E-cadherin. […] In contrast, the overexpression of PACE4-FL and PACE4-altCT did increase the processing of IGF1R and ITGA6 pro-forms, highlighting the cautionary interpretation that are needed in overexpression studies.
(§2) For substrates analysis, cell lysates were prepared by plating equal number of cells in p100 mm plates in complete medium. 24 h later, medium was replaced by 6 mL of serum-free fresh medium (with treatment if indicated; 50 μM of dL-ML-Amba or dec-RVKR-CMK (Bachem, Torrance, Calif.) and cells were further incubated 48 h. Medium was then collected and centrifuged at 1,000×g for 10 min at room temperature to remove any floating cells, aliquot of medium were then taken (800 μL), flash-frozen in liquid nitrogen, lyophilized overnight, restituted in 100 μL of Laemmli buffer: 8M urea (1:1) and boiled for 5 min until complete resuspension. 25 μL of concentrated medium were loaded on SDS-PAGE (equivalent of 200 μL of culture medium). Cells were carefully washed with PBS and lysed from cell pellet (resulting from 1,000×g centrifugation) using radio-immunoprecipitation assay buffer (RIPA) as described in (Couture et al., 2012). Samples were incubated 20 min on ice and further centrifuged 30 min at 13.000 rpm at 4° C. Protein concentration was determined by bicinchoninic acid assay (Pierce) to load 15 μg on polyacrylamide gels. […] was used as a loading control, for conditioned media, a Coomassie blue staining was routinely performed to control for protein loading.

[5] = system: ITGA6; experiment: as above; type: cell-based; conditions: 50 μM, 48 h
Experimental: as §1, §2

[6] = biological target: Multi-Leucine (ML) peptide

Chain of growth differentiation factor 15 (human) (Q99988 195-308): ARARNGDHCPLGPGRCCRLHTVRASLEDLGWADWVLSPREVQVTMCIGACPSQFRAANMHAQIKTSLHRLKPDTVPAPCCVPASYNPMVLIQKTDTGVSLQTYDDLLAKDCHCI

Molecule: COC(=O)[C@H](CCSC)NC(=O)c1ccc(NC[C@@H](N)CS)cc1-c1ccccc1 [FTI-277]
variation in secretion levels [1]: without any significant variation

amount of secreted GDF-15 in conditioned medium (ELISA) (times higher than pLenti6 control cells) [2]: 5
Molecule: PACE4-FL (from UniProt P29122 150-969) (enzyme)

Molecule: [dLeu]LLLRVK-amidinobenzylamide [C23]
GDF-15 observed in the medium [3]: virtually no pro-GDF-15 could be observed
processing of IGF1R pro-form [4]: no effect
processing of ITGA6 pro-form [5]: no effect

Molecule: CCCCCCCCCCCCCCC(Br)C(=O)O (stereo not drawn) [2-BP, 2-bromopalmitate]
variation in secretion levels [1]: without any significant variation

Molecule: decanoyl-RVKR-chloromethylketone [CMK]
GDF-15 observed in the medium [3]: virtually no pro-GDF-15 could be observed
processing of IGF1R pro-form [4]: prevented the processing
processing of ITGA6 pro-form [5]: prevented the processing

Molecule: CC(C)C[C@H](NC(=O)c1ccc(NCc2cnc[nH]2)cc1-c1cccc2ccccc12)C(=O)O [GGTI-2133]
variation in secretion levels [1]: without any significant variation

B1: V5-tagged PACE4-altCT (protein)
chain: QVRSDPQALYFNDPIWSNMWYLHCGDKNSRCRSEMNVQAAWKRGYTGKNVVVTILDDGIERNHPDLAPNYDSYASYDVNGNDYDPSPRYDASNENKHGTRCAGEVAASANNSYCIVGIAYNAKIGGIRMLDGDVTDVVEAKSLGIRPNYIDIYSASWGPDDDGKTVDGPGRLAKQAFEYGIKKGRQGLGSIFVWASGNGGREGDYCSCDGYTNSIYTISVSSATENGYKPWYLEECASTLATTYSSGAFYERKIVTTDLRQRCTDGHTGTSVSAPMVAGIIALALEANSQLTWRDVQHLLVKTSRPAHLKASDWKVNGAGHKVSHFYGFGLVDAEALVVEAKKWTAVPSQHMCVAASDKRPRSIPLVQVLRTTALTSACAEHSDQRVVYLEHVVVRTSISHPRRGDLQIYLVSPSGTKSQLLAKRLLDLSNEGFTNWEFMTVHCWGEKAEGQWTLEIQDLPSQVRNPEKQGKLKEWSLILYGTAEHPYHTFSAHQSRSRMLELSAPELEPPKAALSPSQVEVPEDEEDYTAQSTPGSANILQTSVCHPECGDKGCDGPNADQCLNCVHFSLGSVKTSRKCVSVCPLGYFGDTAARRCRRCHKGCETCSSRAATQCLSCRRGFYHHQEMNTCVTLCPAGFYADESQKNCLKCHPSCKKCVDEPEKCTVCKEGFSLARGSCIPDCEPGTYFDSELIRCGECHHTCGTCVGPGREECIHCAKNFHFHDWKCVPACGEGFYPEEMPGLPHKVCRRCDENCLSCAGSSRNCSRCKTGFTQLGTSCITNHTCSNGDIWQRLETFWVVTTGRMYSHPVGGGQECC
enzymatic activity (cleavage of the fluorogenic substrate Pyr-Arg-Thr-Lys-Arg-methylcoumaryl-7-amide) [6]: both isoforms were still equally inhibited by the Multi-Leucine (ML) peptide

B2: V5-tagged PACE4-FL (protein)
chain: QVRSDPQALYFNDPIWSNMWYLHCGDKNSRCRSEMNVQAAWKRGYTGKNVVVTILDDGIERNHPDLAPNYDSYASYDVNGNDYDPSPRYDASNENKHGTRCAGEVAASANNSYCIVGIAYNAKIGGIRMLDGDVTDVVEAKSLGIRPNYIDIYSASWGPDDDGKTVDGPGRLAKQAFEYGIKKGRQGLGSIFVWASGNGGREGDYCSCDGYTNSIYTISVSSATENGYKPWYLEECASTLATTYSSGAFYERKIVTTDLRQRCTDGHTGTSVSAPMVAGIIALALEANSQLTWRDVQHLLVKTSRPAHLKASDWKVNGAGHKVSHFYGFGLVDAEALVVEAKKWTAVPSQHMCVAASDKRPRSIPLVQVLRTTALTSACAEHSDQRVVYLEHVVVRTSISHPRRGDLQIYLVSPSGTKSQLLAKRLLDLSNEGFTNWEFMTVHCWGEKAEGQWTLEIQDLPSQVRNPEKQGKLKEWSLILYGTAEHPYHTFSAHQSRSRMLELSAPELEPPKAALSPSQVEVPEDEEDYTAQSTPGSANILQTSVCHPECGDKGCDGPNADQCLNCVHFSLGSVKTSRKCVSVCPLGYFGDTAARRCRRCHKGCETCSSRAATQCLSCRRGFYHHQEMNTCVTLCPAGFYADESQKNCLKCHPSCKKCVDEPEKCTVCKEGFSLARGSCIPDCEPGTYFDSELIRCGECHHTCGTCVGPGREECIHCAKNFHFHDWKCVPACGEGFYPEEMPGLPHKVCRRCDENCLSCAGSSRNCSRCKTGFTQLGTSCITNHTCSNADETFCEMVKSNRLCERKLFIQFCCRTCLLAG
enzymatic activity (cleavage of the fluorogenic substrate Pyr-Arg-Thr-Lys-Arg-methylcoumaryl-7-amide) [6]: both isoforms were still equally inhibited by the Multi-Leucine (ML) peptide

From US20190316211A1, “ONCOGENIC ALTERNATIVE SPLICING SWITCH OF PACE4 IN CANCER” (SOCIETE DE COMMERCIALISATION DES PRODUITS DE LA RECHERCHE …, priority 2016, published 2019)
